Tests used:
[1] = test system: embryonic (E18) rat cortical and striatal neurons; experiment: LDH assay, glutamate / tPA insult (Example 1); type: cell-based
Description: For this example PAN-811 was dissolved in PEG:EtOH (7:3) to a concentration of 25 mM, and further diluted in neurobasal medium to a final concentration of 2 μM. The control vehicle is 1:12,500 PEG:EtOH (7:3 in BSS).
(§1) A mixed culture of embryonic (E18) rat cortical and striatal neurons was cultured for 22 days in 50% antioxidative (AO) neurobasal medium (made by replacing 50% of the neurobasal culture medium with a medium comprised of neurobasal plus B27 supplement (minus AO, i.e., without the antioxidants vitamin E, vitamin E acetate, 2.5 mg/L superoxide dismutase, 2.5 mg/L catalase, and 1 mg/L glutathione) (from Invitrogen)), and then divided into test groups in accordance with the following scheme: (1) not insulted (control); (2) insulted with 15 μM glutamate; (3) insulted with 20 μg/ml tPA; or (4) insulted with both 15 μM glutamate and 20 μg/ml tPA, for a period of 24 hours. In a further test category, neurons that were to be insulted for 24 hours with the combination of 15 μM glutamate and 20 μg/ml tPA, were divided into groups in which (1) cells were not pre-treated prior to insult; (2) were pretreated overnight with 1:12,500 vehicle (used for PAN-811), or (3) were pre-treated overnight with PAN-811 (in vehicle).
(§2) The lactate dehydrogenase (LDH) assay (Promega) is based on the reduction of NAD by the action of LDH. The resulting reduced NAD (NADH) is utilized in the stoichiometric conversion of a tetrazolium dye. If cell-free aliquots of medium from cultures given different treatments are assayed, then the amount of LDH activity can be used as an indicator of relative cell death as well as a function of membrane integrity. A 50 μl aliquot of culture medium from a well in tested 96-well plate is transferred into a well in unused plate and supplemented with 25 μl of equally-mixed Substrate, Enzyme and Dye Solutions (Sigma). The preparation is incubated at room temperature for 20-30 minutes, and then measured spectrophotometrically at wavelength of 490 nm.

[2] = test system: embryonic (E18) rat cortical and striatal neurons; experiment: LDH assay, hypoglycemia/hypoxia (H/H) and tPA insult (Example 2); type: cell-based
Description: as §2
In this example, PAN-811 was dissolved in PEG:EtOH (7:3) to a concentration of 25 mM, and further diluted in neurobasal medium to final concentrations of 1.25, 2.5, 5 and 10 μM. The control vehicle is 1:10,000 PEG:EtOH (7:3 in BSS).
(§3) A mixed culture of embryonic (E18) rat cortical and striatal neurons was cultured for 13 days in neurobasal medium (Invitrogen), then insulted by hypoglycemia/hypoxia (H/H) conditions for 6 hours, or a combination of H/H and 20 μg/ml tPA. The H/H conditions were 1.2 mM glucose (normally 25 mM in culture medium) and the absence of oxygen for 6 hours. (Following H/H conditions, the cultures were returned to the typical conditions of 25 mM glucose medium and 95% ambient air plus 5% CO2.)
(§4) In a further experiment, cells that were under H/H conditions and also treated with the tPA were divided into groups, which were either co-treated or post-treated (i.e., during or after the 6 hour insult period) with control vehicle or each of PAN-811 at concentrations of 1.25, 2.5, 5 and 10 μM.

[3] = test system: embryonic (E18) rat cortical and striatal neurons; experiment: Morphological changes, H/H and tPA insult (Example 2); type: cell-based
Description: as §3, §4
The experimental results were evaluated by morphological changes, and LDH and MTS analyses.

[4] = systematic administration (Jiang et al.); cited from earlier work
[5] = single 2-h infusion every 4 weeks, cited from earlier work
[6] = test system: embryonic (E18) rat cortical and striatal neurons; experiment: MTS (mitochondrial function) assay, glutamate / tPA insult (Example 1); type: cell-based; details: 15 μM glutamate, 20 μg/ml tPA, insult 24 hours
Description: as §1, with “In a further test category, neurons that were to be insulted for 24 hours with the combination of 15 μM glutamate and 20 μg/ml tPA, were divided into groups in which (1) cells were not pre-treated prior to insult; (2) were pretreated overnight with 1:12,500 vehicle (used for PAN-811), or (3) were pre-treated overnight with PAN-811 (in vehicle).” left out
The 3-(4,5-dimethylthiazol-2-yl)-5-(3-carboxymethoxyphenyl)-2-(4-sulfophenyl)-2H-tetrazolium (MTS) assay (Promega) is routinely used to evaluate mitochondrial function, and reduced readings are correlated with neuronal cell death. The MTS tetrazolium compound is reduced in metabolically active mitochondria into a colored formazan product that is soluble in tissue culture medium, and can be detected via its absorbance 490 nm. […] The absorbance at 490 nm was recorded using a Bio-Rad 96 well plate reader.

[7] = test system: embryonic (E18) rat cortical and striatal neurons; experiment: Morphological changes, glutamate / tPA insult (Example 1); type: cell-based; details: 15 μM glutamate, 20 μg/ml tPA, insult 24 hours
Description: as §1
The experimental results were evaluated by morphological changes, lactate dehydrogenase (LDH) and MTS (mitochondrial function) analyses.

[8] = test system: tPA-potentiated, NMDA-mediated, excitotoxic neuronal death; details: cited from earlier work
[9] = test system: embryonic (E18) rat cortical and striatal neurons; experiment: MTS assay, H/H and tPA insult (Example 2); type: cell-based; details: H/H 6 hours combined with 20 μg/ml tPA
Description: The 3-(4,5-dimethylthiazol-2-yl)-5-(3-carboxymethoxyphenyl)-2-(4-sulfophenyl)-2H-tetrazolium (MTS) assay (Promega) is routinely used to evaluate mitochondrial function, and reduced readings are correlated with neuronal cell death. The MTS tetrazolium compound is reduced in metabolically active mitochondria into a colored formazan product that is soluble in tissue culture medium, and can be detected via its absorbance 490 nm. 10 μl of MTS reagent (Promega) are added to each well of the 96 well assay plates containing the samples in 50 μl of culture medium. The plate is then incubated in a humidified, 5% CO2 atmosphere at 37° C. for 1-2 hours until the color is fully developed. The absorbance at 490 nm was recorded using a Bio-Rad 96 well plate reader.
as §3

Molecule: NC(=S)N/N=C/c1ncccc1N [PAN-811, 3-aminopyridine-2-carboxaldehyde thiosemicarbazone]
- reduction of LDH reading as compared to no pre-treatment or control vehicle ([1]; pre-treated overnight with 2 μM PAN-811, insult 15 μM glutamate and 20 μg/ml tPA, 24 hours): about 11%
- neuroprotection (LDH readings) ([2]; 1.25 μM PAN-811, H/H and tPA): effective in significantly reducing LDH readings
- protection (LDH) ([2]; 5 μM PAN-811 post-insult (H/H and tPA)): 51%
- decrease of LDH reading ([2]; co-treated with 5 μM PAN-811 during H/H and tPA insult): 23%
- dose dependence of protection ([2]; co-treatment or post-treatment, 1.25, 2.5, 5 and 10 μM, H/H and tPA): showed a dose response correlation
- neuronal morphology ([3]; co- or post-treatment, 1.25-10 μM PAN-811, H/H and tPA conditions): preserved neuronal morphology
- passage of the BBB [4]: will pass the BBB
- well tolerated dose ([5]; 46 courses of therapy): up to 105 mg/m^2
- dose limiting toxicity ([5]; doses up to 105 mg/m^2): not identified

Molecule: N[C@@H](CCC(=O)O)C(=O)O [glutamate, reference compound]
- increase in LDH over the control ([1]; 15 μM glutamate, 20 μg/ml tPA, insult 24 hours): 4.4 fold
- reduction in the MTS reading over the control [6]: 13%
- morphology of neurons [7]: strong neuronal cell death

Molecule: Cl.Cl.N=C(N)c1ccc(C=C2CCCCC(=Cc3ccc(C(=N)N)cc3)C2=O)cc1 [tPA-Stop™, 2,7-bis-(4-amidino-benzylidene)-cycloheptan-1-one dihydrochloride]
- effect on alpha-amino-2,3-dihydro-5-methyl-3-oxo-4-isoxazole propanoic acid or kainate-mediated necrosis [8]: fails to modulate
- effect on tPA-potentiated, NMDA-mediated, excitotoxic neuronal death [8]: effective in reducing

Molecule: tPA: Recombinant tissue-type plasminogen activator, a thrombolytic-acting drug approved for ischemic stroke
- toxicity to neurons by LDH assay ([1]; 20 μg/ml tPA alone, 24 hours): not toxic
- reduction in the MTS reading over the control [6]: did not cause any reduction
- morphology of neurons [7]: neurons remained healthy
- enhancement in the LDH reading over control ([2]; H/H 6 hours combined with 20 μg/ml tPA): 3.3 fold
- decrease of MTS reading [9]: 51%
- morphology, neuronal cell death ([3]; H/H combined with 20 μg/ml tPA, by 17 hours post-insult): robust neuronal cell death
